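Method: 48-hour compound exposure of cells in 96-well plates, five concentrations, linear interpolation of endpoints. TGI: total growth inhibition.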
Tests used:
Assay in all cases: DTP human tumour cell line panel, 48 h
SF-295 CNS = tested on: SF-295 CNS
RPMI-8226 leukemia = tested on: RPMI-8226 leukemia
MDA-MB-435 = tested on: MDA-MB-435
OVCAR-4 ovarian = tested on: OVCAR-4 ovarian
HCT-116 colon = tested on: HCT-116 colon
SK-MEL-2 melanoma = tested on: SK-MEL-2 melanoma
NCI-H226 lung = tested on: NCI-H226 lung
SNB-75 CNS = tested on: SNB-75 CNS
MCF7 breast = tested on: MCF7 breast
MOLT-4 leukemia = tested on: MOLT-4 leukemia
HOP-62 NSCLC = tested on: HOP-62 NSCLC
UACC-257 melanoma = tested on: UACC-257 melanoma
EKVX NSCLC = tested on: EKVX NSCLC
NCI-H522 lung = tested on: NCI-H522 lung
NCI-H460 lung = tested on: NCI-H460 lung
BT-549 breast = tested on: BT-549 breast
A498 renal = tested on: A498 renal
SF-268 CNS = tested on: SF-268 CNS
SK-MEL-5 melanoma = tested on: SK-MEL-5 melanoma
LOX IMVI melanoma = tested on: LOX IMVI melanoma
HT29 colon = tested on: HT29 colon
CCRF-CEM leukemia = tested on: CCRF-CEM leukemia
COLO 205 colon = tested on: COLO 205 colon
MDA-N = tested on: MDA-N
T-47D breast = tested on: T-47D breast
SR leukemia = tested on: SR leukemia
DU-145 prostate = tested on: DU-145 prostate
OVCAR-5 ovarian = tested on: OVCAR-5 ovarian
HS 578T breast = tested on: HS 578T breast
SW-620 colon = tested on: SW-620 colon
786-0 renal = tested on: 786-0 renal
PC-3 prostate = tested on: PC-3 prostate
HCT-15 colon = tested on: HCT-15 colon
OVCAR-8 ovarian = tested on: OVCAR-8 ovarian
M14 melanoma = tested on: M14 melanoma
SK-OV-3 ovarian = tested on: SK-OV-3 ovarian
SNB-19 CNS = tested on: SNB-19 CNS
MALME-3M melanoma = tested on: MALME-3M melanoma
HOP-92 NSCLC = tested on: HOP-92 NSCLC
HCC-2998 colon = tested on: HCC-2998 colon
ACHN renal = tested on: ACHN renal
MDA-MB-231 breast = tested on: MDA-MB-231 breast
UACC-62 melanoma = tested on: UACC-62 melanoma
KM12 colon = tested on: KM12 colon
K-562 leukemia = tested on: K-562 leukemia
OVCAR-3 ovarian = tested on: OVCAR-3 ovarian
U251 CNS = tested on: U251 CNS
HL-60(TB) leukemia = tested on: HL-60(TB) leukemia
CAKI-1 renal = tested on: CAKI-1 renal
IGROV1 ovarian = tested on: IGROV1 ovarian
NCI-H23 lung = tested on: NCI-H23 lung
SN12C renal = tested on: SN12C renal
RXF 393 renal = tested on: RXF 393 renal
SK-MEL-28 melanoma = tested on: SK-MEL-28 melanoma
A549 NSCLC = tested on: A549 NSCLC
UO-31 renal = tested on: UO-31 renal
NCI/ADR-RES ovarian = tested on: NCI/ADR-RES ovarian
TK-10 renal = tested on: TK-10 renal
SF-539 CNS = tested on: SF-539 CNS

CC(C)NC(=O)OCc1c(COC(=O)NC(C)C)n(C)c2c1ccc1ccsc12
TGI (SF-295 CNS): > 81.4 µM
TGI (RPMI-8226 leukemia): 20.3 µM
TGI (MDA-MB-435): 25.3 µM
TGI (OVCAR-4 ovarian): 23.7 µM
TGI (HCT-116 colon): 31.8 µM
TGI (SK-MEL-2 melanoma): 31.8 µM
TGI (NCI-H226 lung): 28.7 µM
TGI (SNB-75 CNS): 26.9 µM
TGI (MCF7 breast): > 53.1 µM
TGI (MOLT-4 leukemia): 12.4 µM
TGI (HOP-62 NSCLC): 55.9 µM
TGI (UACC-257 melanoma): 31.7 µM
TGI (EKVX NSCLC): 48.1 µM
TGI (NCI-H522 lung): 21.5 µM
TGI (NCI-H460 lung): 21.2 µM
TGI (BT-549 breast): 28.4 µM
TGI (A498 renal): 35.3 µM
TGI (SF-268 CNS): 25.4 µM
TGI (SK-MEL-5 melanoma): 22.7 µM
TGI (LOX IMVI melanoma): 30 µM
TGI (HT29 colon): 38.5 µM
TGI (CCRF-CEM leukemia): 7.31 µM
TGI (COLO 205 colon): 26 µM
TGI (MDA-N): 26.1 µM
TGI (T-47D breast): > 100 µM
TGI (SR leukemia): 8.45 µM
TGI (DU-145 prostate): 27.4 µM
TGI (OVCAR-5 ovarian): 54.1 µM
TGI (HS 578T breast): 48.5 µM
TGI (SW-620 colon): > 45 µM
TGI (786-0 renal): 23.4 µM
TGI (PC-3 prostate): 39.9 µM
TGI (HCT-15 colon): 28.1 µM
TGI (OVCAR-8 ovarian): 40.5 µM
TGI (M14 melanoma): 22.5 µM
TGI (SK-OV-3 ovarian): 69.6 µM
TGI (SNB-19 CNS): 52.2 µM
TGI (MALME-3M melanoma): 18.3 µM
TGI (HOP-92 NSCLC): 45.4 µM
TGI (HCC-2998 colon): 28.6 µM
TGI (ACHN renal): 14.2 µM
TGI (MDA-MB-231 breast): 38.4 µM
TGI (UACC-62 melanoma): 22.9 µM
TGI (KM12 colon): 38.3 µM
TGI (K-562 leukemia): 54.8 µM
TGI (OVCAR-3 ovarian): 40 µM
TGI (U251 CNS): 35.8 µM
TGI (HL-60(TB) leukemia): 9.93 µM
TGI (CAKI-1 renal): 13.9 µM
TGI (IGROV1 ovarian): 53.3 µM
TGI (NCI-H23 lung): 21.8 µM
TGI (SN12C renal): 35.2 µM
TGI (RXF 393 renal): 21.1 µM
TGI (SK-MEL-28 melanoma): 30 µM
TGI (A549 NSCLC): 47.4 µM
TGI (UO-31 renal): 26.6 µM
TGI (NCI/ADR-RES ovarian): 31.4 µM
TGI (TK-10 renal): > 94.4 µM

CCN(CC)c1ccc(/C=C/C2=NN(c3cccc(S(=O)(=O)O)c3)C3(C2)SCC(=O)N3c2nc3ccccc3s2)cc1 (stereo unspecified)
TGI (RPMI-8226 leukemia): 66.8 µM
TGI (MDA-MB-435): 47.2 µM
TGI (OVCAR-4 ovarian): > 100 µM
TGI (HCT-116 colon): > 100 µM
TGI (SK-MEL-2 melanoma): > 100 µM
TGI (NCI-H226 lung): > 100 µM
TGI (SNB-75 CNS): > 100 µM
TGI (MCF7 breast): 91.2 µM
TGI (MOLT-4 leukemia): > 100 µM
TGI (UACC-257 melanoma): > 100 µM
TGI (EKVX NSCLC): > 100 µM
TGI (NCI-H522 lung): 67.2 µM
TGI (NCI-H460 lung): > 100 µM
TGI (BT-549 breast): > 100 µM
TGI (A498 renal): 99 µM
TGI (SF-268 CNS): > 100 µM
TGI (SK-MEL-5 melanoma): > 100 µM
TGI (LOX IMVI melanoma): > 100 µM
TGI (HT29 colon): > 100 µM
TGI (CCRF-CEM leukemia): 55 µM
TGI (COLO 205 colon): 81.1 µM
TGI (MDA-N): > 100 µM
TGI (T-47D breast): 53.9 µM
TGI (SR leukemia): 86.2 µM
TGI (DU-145 prostate): 75.7 µM
TGI (OVCAR-5 ovarian): > 100 µM
TGI (HS 578T breast): > 100 µM
TGI (SW-620 colon): > 100 µM
TGI (786-0 renal): > 100 µM
TGI (PC-3 prostate): > 100 µM
TGI (HCT-15 colon): > 100 µM
TGI (OVCAR-8 ovarian): > 100 µM
TGI (M14 melanoma): > 100 µM
TGI (SNB-19 CNS): > 100 µM
TGI (MALME-3M melanoma): > 100 µM
TGI (HOP-92 NSCLC): > 100 µM
TGI (HCC-2998 colon): > 100 µM
TGI (ACHN renal): > 100 µM
TGI (MDA-MB-231 breast): > 100 µM
TGI (UACC-62 melanoma): > 100 µM
TGI (KM12 colon): 60.5 µM
TGI (K-562 leukemia): > 100 µM
TGI (U251 CNS): > 100 µM
TGI (HL-60(TB) leukemia): 80.3 µM
TGI (CAKI-1 renal): > 100 µM
TGI (IGROV1 ovarian): > 100 µM
TGI (NCI-H23 lung): > 100 µM
TGI (SN12C renal): > 100 µM
TGI (RXF 393 renal): > 100 µM
TGI (SK-MEL-28 melanoma): > 100 µM
TGI (A549 NSCLC): > 100 µM
TGI (UO-31 renal): > 100 µM
TGI (NCI/ADR-RES ovarian): > 100 µM
TGI (SF-539 CNS): > 100 µM
TGI (TK-10 renal): 94 µM

N/C(=N\Nc1ccc(C(=O)O)cc1)c1cnccn1
TGI (SF-295 CNS): > 100 µM
TGI (RPMI-8226 leukemia): > 100 µM
TGI (MDA-MB-435): > 100 µM
TGI (OVCAR-4 ovarian): > 100 µM
TGI (HCT-116 colon): > 100 µM
TGI (SK-MEL-2 melanoma): > 100 µM
TGI (NCI-H226 lung): > 100 µM
TGI (SNB-75 CNS): > 100 µM
TGI (MCF7 breast): > 100 µM
TGI (MOLT-4 leukemia): > 100 µM
TGI (HOP-62 NSCLC): > 100 µM
TGI (UACC-257 melanoma): > 100 µM
TGI (EKVX NSCLC): > 100 µM
TGI (NCI-H522 lung): > 100 µM
TGI (NCI-H460 lung): > 100 µM
TGI (BT-549 breast): > 100 µM
TGI (A498 renal): > 100 µM
TGI (SF-268 CNS): > 100 µM
TGI (SK-MEL-5 melanoma): > 100 µM
TGI (LOX IMVI melanoma): > 100 µM
TGI (HT29 colon): > 100 µM
TGI (COLO 205 colon): > 100 µM
TGI (MDA-N): > 100 µM
TGI (T-47D breast): > 100 µM
TGI (SR leukemia): > 100 µM
TGI (DU-145 prostate): > 100 µM
TGI (OVCAR-5 ovarian): > 100 µM
TGI (HS 578T breast): > 100 µM
TGI (SW-620 colon): > 100 µM
TGI (786-0 renal): > 100 µM
TGI (PC-3 prostate): > 100 µM
TGI (HCT-15 colon): > 100 µM
TGI (OVCAR-8 ovarian): > 100 µM
TGI (M14 melanoma): > 100 µM
TGI (SK-OV-3 ovarian): > 100 µM
TGI (SNB-19 CNS): > 100 µM
TGI (MALME-3M melanoma): > 100 µM
TGI (HOP-92 NSCLC): > 100 µM
TGI (HCC-2998 colon): > 100 µM
TGI (ACHN renal): > 100 µM
TGI (MDA-MB-231 breast): > 100 µM
TGI (UACC-62 melanoma): > 100 µM
TGI (KM12 colon): > 100 µM
TGI (K-562 leukemia): > 100 µM
TGI (OVCAR-3 ovarian): > 100 µM
TGI (U251 CNS): > 100 µM
TGI (HL-60(TB) leukemia): 0.166 µM
TGI (CAKI-1 renal): > 100 µM
TGI (IGROV1 ovarian): > 100 µM
TGI (NCI-H23 lung): > 100 µM
TGI (SN12C renal): > 100 µM
TGI (RXF 393 renal): > 100 µM
TGI (SK-MEL-28 melanoma): > 100 µM
TGI (A549 NSCLC): > 100 µM
TGI (UO-31 renal): > 100 µM
TGI (NCI/ADR-RES ovarian): > 100 µM
TGI (SF-539 CNS): > 100 µM
TGI (TK-10 renal): > 100 µM
